The record followed here is patent US9771369B2, “Compounds and methods for kinase modulation, and indications therefor” (Plexxikon Inc., priority 2014, dated 2017).

Experiment [1] has as its system BaF3-FL KIT D816V or BaF3-FL KIT V560G/D816V cell line. Description: Cell-based assays of c-Kit mutant kinase activity (cell proliferation, ATPlite). Particulars: at least one of the c-kit cell assays of Example 7. In a few lines:
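BaF3 cells dependent on transfected full-length human KIT D816V or V560G/D816V (pCI-Neo, CMV promoter) were seeded at 1×10^4 cells/well and exposed to 8-point 1:3 dilutions from 10 μM top (0.2% DMSO) for three days at 37° C. ATPlite luminescence gave cell number; IC50 from concentration-response.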
In general terms: In ATP-based viability assays light output follows the ATP content of the culture.

The next experiment has as its target c-kit mutant D816V (Homo sapiens (Human), UniProt P10721, D816V/DEL694-753). Description: c-Kit mutant D816V biochemical assay (AlphaScreen kinase activity). Put shortly: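 Recombinant His-tagged c-Kit D816V kinase domain (residues 551-934, insert 694-753 deleted, E. coli-expressed) phosphorylating 30 nM biotin-(E4Y)10 with 10 μM ATP, HEPES pH 7.2, Mg/Mn, 5% DMSO; 30 min, room temperature. Phosphorylation detected by AlphaScreen (streptavidin donor/PY30 acceptor beads); IC50 from 8-point 1:3 series.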
In general terms: Bead proximity is the source of the signal in Alpha formats.

Each structure is given as a SMILES string.

c-kit mutant D816V, sequence (P10721 other isoform, or with tags, fused parts or gaps D816V/del 694-753): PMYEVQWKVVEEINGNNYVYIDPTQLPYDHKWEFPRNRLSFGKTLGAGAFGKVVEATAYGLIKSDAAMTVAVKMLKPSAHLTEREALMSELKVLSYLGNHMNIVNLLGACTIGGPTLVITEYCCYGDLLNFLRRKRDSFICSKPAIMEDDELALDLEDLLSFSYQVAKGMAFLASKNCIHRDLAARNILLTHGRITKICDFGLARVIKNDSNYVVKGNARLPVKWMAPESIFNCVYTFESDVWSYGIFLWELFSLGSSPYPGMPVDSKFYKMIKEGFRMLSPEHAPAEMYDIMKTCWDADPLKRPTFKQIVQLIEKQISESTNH

Turning to `COc1ccc(-c2[nH]c(C3(C)CCN(c4ncnc5[nH]c(-c6ccc(F)cc6)cc45)CC3)nc2C)cc1C` [P-3052, 6-(4-fluorophenyl)-4-[4-[5-(4-methoxy-3-methyl-phenyl)-4-methyl-1H-imidazol-2-yl]-4-methyl-1-piperidyl]-7H-pyrrolo[2,3-d]pyrimidine], the IC50 is less than 10000 nM in experiment [1] and 0.0001 to 1 µM at c-kit mutant D816V.
On the same counts, the results for `COc1ccc(-c2[nH]c(C3(C)CCN(c4ncnc5[nH]c(-c6ccc(C#N)cc6)cc45)CC3)nc2C)cc1C` [P-3053, 4-[4-[4-[5-(4-methoxy-3-methyl-phenyl)-4-methyl-1H-imidazol-2-yl]-4-methyl-1-piperidyl]-7H-pyrrolo[2,3-d]pyrimidin-6-yl]benzonitrile] are less than 10000 nM and 0.0001 to 1 µM.
Regarding `COc1cc(-c2cc3c(N4CCC(C)(c5nc(C)c(-c6ccc(OC)c(C)c6)[nH]5)CC4)ncnc3[nH]2)ccn1` [P-3054, 4-[4-[5-(4-methoxy-3-methyl-phenyl)-4-methyl-1H-imidazol-2-yl]-4-methyl-1-piperidyl]-6-(2-methoxy-4-pyridyl)-7H-pyrrolo[2,3-d]pyrimidine], the IC50 in experiment [1] is less than 10000 nM; against c-kit mutant D816V, 0.0001 to 1 µM.
The matching figures for `CCC1(c2nc(C)c(-c3ccc(OC)cc3)[nH]2)CCN(c2ncnc3[nH]c(-c4ccc(F)cc4)cc23)CC1` [P-3055, 4-[4-ethyl-4-[5-(4-methoxyphenyl)-4-methyl-1H-imidazol-2-yl]-1-piperidyl]-6-(4-fluorophenyl)-7H-pyrrolo[2,3-d]pyrimidine]: less than 10000 nM and 0.0001 to 1 µM.
Turning to `CCC1(c2nc(C)c(-c3ccc(OC)c(C)c3)[nH]2)CCN(c2ncnc3[nH]c(-c4ccc(F)cc4)cc23)CC1` [P-3056, 4-[4-ethyl-4-[5-(4-methoxy-3-methyl-phenyl)-4-methyl-1H-imidazol-2-yl]-1-piperidyl]-6-(4-fluorophenyl)-7H-pyrrolo[2,3-d]pyrimidine], the results for the IC50 (in experiment [1]; against c-kit mutant D816V) were less than 10000 nM and 0.0001 to 1 µM, respectively.
For the molecule `Cc1nc(C2(C)CCN(c3ncnc4[nH]c(-c5ccc(F)cc5)cc34)CC2)[nH]c1-c1ccc(F)cc1` [P-3057, 6-(4-fluorophenyl)-4-[4-[5-(4-fluorophenyl)-4-methyl-1H-imidazol-2-yl]-4-methyl-1-piperidyl]-7H-pyrrolo[2,3-d]pyrimidine], the IC50 in experiment [1] was less than 10000 nM; on c-kit mutant D816V it was 0.0001 to 1 µM.
`Cc1nc(C2(C)CCN(c3ncnc4[nH]c(-c5ccc(F)cc5)cc34)CC2)[nH]c1-c1ccc(Cl)cc1` [P-3058, 4-[4-[5-(4-chlorophenyl)-4-methyl-1H-imidazol-2-yl]-4-methyl-1-piperidyl]-6-(4-fluorophenyl)-7H-pyrrolo[2,3-d]pyrimidine]: the figures for the IC50 (in experiment [1]; on c-kit mutant D816V) were less than 10000 nM and 0.0001 to 1 µM, respectively.
Consider `CCc1ccc(-c2[nH]c(C3CCN(c4ncnc5[nH]c(-c6ccnc(OC)c6)cc45)CC3)nc2C)cc1` [P-3059, 4-[4-[5-(4-ethylphenyl)-4-methyl-1H-imidazol-2-yl]-1-piperidyl]-6-(2-methoxy-4-pyridyl)-7H-pyrrolo[2,3-d]pyrimidine], for which the figures for the IC50 (in experiment [1]; on c-kit mutant D816V) were less than 10000 nM and 0.0001 to 1 µM, respectively.
For the molecule `CCc1ccc(-c2[nH]c(C3CCN(c4ncnc5[nH]c(-c6ccc(F)cc6)cc45)CC3)nc2C)cc1` [P-3060, 4-[4-[5-(4-ethylphenyl)-4-methyl-1H-imidazol-2-yl]-1-piperidyl]-6-(4-fluorophenyl)-7H-pyrrolo[2,3-d]pyrimidine], the IC50 in experiment [1] is less than 10000 nM; against c-kit mutant D816V, 0.0001 to 1 µM.
Turning to `CCc1ccc(-c2[nH]c(C3CCN(c4ncnc5[nH]c(-c6ccc(C#N)cc6)cc45)CC3)nc2C)cc1` [P-3061, 4-[4-[4-[5-(4-ethylphenyl)-4-methyl-1H-imidazol-2-yl]-1-piperidyl]-7H-pyrrolo[2,3-d]pyrimidin-6-yl]benzonitrile], the values for the IC50 (in experiment [1]; at c-kit mutant D816V) were less than 10000 nM and 0.0001 to 1 µM, respectively.
On the same counts, the results for `Cc1ccc(-c2[nH]c(C3CCN(c4ncnc5[nH]c(-c6ccc(F)cc6)cc45)CC3)nc2C)cc1` [P-3062, 6-(4-fluorophenyl)-4-[4-[4-methyl-5-(p-tolyl)-1H-imidazol-2-yl]-1-piperidyl]-7H-pyrrolo[2,3-d]pyrimidine] are less than 10000 nM and 0.0001 to 1 µM.
`COc1ccc(-c2[nH]c(C3(C)CCN(c4ncnc5[nH]c(C)cc45)CC3)nc2C)cc1` [P-3063, 4-[4-[5-(4-methoxyphenyl)-4-methyl-1H-imidazol-2-yl]-4-methyl-1-piperidyl]-6-methyl-7H-pyrrolo[2,3-d]pyrimidine]: the IC50 in experiment [1] is less than 10000 nM; on c-kit mutant D816V, 0.0001 to 1 µM.
The matching figures for `Cc1cc2c(N3CCC(C)(c4nc(C)c(-c5ccc(F)cc5)[nH]4)CC3)ncnc2[nH]1` [P-3064, 4-[4-[5-(4-fluorophenyl)-4-methyl-1H-imidazol-2-yl]-4-methyl-1-piperidyl]-6-methyl-7H-pyrrolo[2,3-d]pyrimidine]: less than 10000 nM and 0.0001 to 1 µM.
As to `CCOc1ccc(-c2[nH]c(C3CCN(c4ncnc5[nH]c(-c6ccc(F)cc6)cc45)CC3)nc2C)cc1C` [P-3065, 4-[4-[5-(4-ethoxy-3-methyl-phenyl)-4-methyl-1H-imidazol-2-yl]-1-piperidyl]-6-(4-fluorophenyl)-7H-pyrrolo[2,3-d]pyrimidine], the IC50 in experiment [1] was less than 10000 nM; against c-kit mutant D816V, 0.0001 to 1 µM.
On the same counts, the results for `CCOc1ccc(-c2[nH]c(C3CCN(c4ncnc5[nH]c(-c6ccc(C#N)cc6)cc45)CC3)nc2C)cc1C` [P-3066, 4-[4-[4-[5-(4-ethoxy-3-methyl-phenyl)-4-methyl-1H-imidazol-2-yl]-1-piperidyl]-7H-pyrrolo[2,3-d]pyrimidin-6-yl]benzonitrile] are less than 10000 nM and 0.0001 to 1 µM.
Consider `CCOc1ccc(-c2[nH]c(C3CCN(c4ncnc5[nH]c(-c6ccnc(OC)c6)cc45)CC3)nc2C)cc1C` [P-3067, 4-[4-[5-(4-ethoxy-3-methyl-phenyl)-4-methyl-1H-imidazol-2-yl]-1-piperidyl]-6-(2-methoxy-4-pyridyl)-7H-pyrrolo[2,3-d]pyrimidine], for which the IC50 is less than 10000 nM in experiment [1] and 0.0001 to 1 µM at c-kit mutant D816V.
For the molecule `Cc1nc(C2CCN(c3ncnc4[nH]c(-c5ccc(F)cc5)cc34)CC2)[nH]c1-c1ccc2c(c1)OCO2` [P-3068, 4-[4-[5-(1,3-benzodioxol-5-yl)-4-methyl-1H-imidazol-2-yl]-1-piperidyl]-6-(4-fluorophenyl)-7H-pyrrolo[2,3-d]pyrimidine], the IC50 was less than 10000 nM in experiment [1] and 0.0001 to 1 µM against c-kit mutant D816V.
Turning to `Cc1nc(C2CCN(c3ncnc4[nH]c(-c5ccc(C#N)cc5)cc34)CC2)[nH]c1-c1ccc2c(c1)OCO2` [P-3069, 4-[4-[4-[5-(1,3-benzodioxol-5-yl)-4-methyl-1H-imidazol-2-yl]-1-piperidyl]-7H-pyrrolo[2,3-d]pyrimidin-6-yl]benzonitrile], the IC50 is less than 10000 nM in experiment [1] and 0.0001 to 1 µM at c-kit mutant D816V.
`COc1cc(-c2cc3c(N4CCC(c5nc(C)c(-c6ccc7c(c6)OCO7)[nH]5)CC4)ncnc3[nH]2)ccn1` [P-3070, 4-[4-[5-(1,3-benzodioxol-5-yl)-4-methyl-1H-imidazol-2-yl]-1-piperidyl]-6-(2-methoxy-4-pyridyl)-7H-pyrrolo[2,3-d]pyrimidine]: the concentration for half-maximal inhibition (IC50) in experiment [1] is less than 10000 nM; against c-kit mutant D816V, 0.0001 to 1 µM.
`CC(=O)Nc1cccc(-c2cc3c(N4CCC(c5nc(C)c(-c6ccccc6)[nH]5)CC4)ncnc3[nH]2)c1` [P-3071, N-[3-[4-[4-(4-methyl-5-phenyl-1H-imidazol-2-yl)-1-piperidyl]-7H-pyrrolo[2,3-d]pyrimidin-6-yl]phenyl]acetamide]: the IC50 in experiment [1] was less than 10000 nM; at c-kit mutant D816V, 0.0001 to 1 µM.
On to `COc1ccc(-c2cc3c(N4CCC(c5nc(C)c(-c6ccccc6)[nH]5)CC4)ncnc3[nH]2)cn1` [P-3072, 6-(6-methoxy-3-pyridyl)-4-[4-(4-methyl-5-phenyl-1H-imidazol-2-yl)-1-piperidyl]-7H-pyrrolo[2,3-d]pyrimidine], for which the IC50 in experiment [1] was less than 10000 nM; against c-kit mutant D816V, 0.0001 to 1 µM.
In the case of `Cc1nn(C)cc1-c1cc2c(N3CCC(c4nc(C)c(-c5ccccc5)[nH]4)CC3)ncnc2[nH]1` [P-3073, 6-(1,3-dimethylpyrazol-4-yl)-4-[4-(4-methyl-5-phenyl-1H-imidazol-2-yl)-1-piperidyl]-7H-pyrrolo[2,3-d]pyrimidine], the IC50 is less than 10000 nM in experiment [1] and 0.0001 to 1 µM against c-kit mutant D816V.
On the same counts, the results for `Cc1ccc(-c2cc3c(N4CCC(c5nc(C)c(-c6ccccc6)[nH]5)CC4)ncnc3[nH]2)cn1` [P-3074, 4-[4-(4-methyl-5-phenyl-1H-imidazol-2-yl)-1-piperidyl]-6-(6-methyl-3-pyridyl)-7H-pyrrolo[2,3-d]pyrimidine] are less than 10000 nM and 0.0001 to 1 µM.
As for `CCOc1cc(-c2cc3c(N4CCC(c5nc(C)c(-c6ccccc6)[nH]5)CC4)ncnc3[nH]2)ccn1` [P-3075, 6-(2-ethoxy-4-pyridyl)-4-[4-(4-methyl-5-phenyl-1H-imidazol-2-yl)-1-piperidyl]-7H-pyrrolo[2,3-d]pyrimidine], the IC50 in experiment [1] was less than 10000 nM; against c-kit mutant D816V it was 0.0001 to 1 µM.
In the case of `Cc1nc(C2CCN(c3ncnc4[nH]c(-c5ccnc(N6CCOCC6)c5)cc34)CC2)[nH]c1-c1ccccc1` [P-3076, 4-[4-[4-[4-(4-methyl-5-phenyl-1H-imidazol-2-yl)-1-piperidyl]-7H-pyrrolo[2,3-d]pyrimidin-6-yl]-2-pyridyl]morpholine], the IC50 in experiment [1] is less than 10000 nM; at c-kit mutant D816V, 0.0001 to 1 µM.

As usually defined, the IC50 is the concentration needed to halve the response being measured.
